Source: US9434695B2, “Nitrogenous heterocyclic derivatives and their application in drugs” (SUNSHINE LAKE PHARMA CO., LTD., priority 2012, dated 2016)

System: BHK-21 cells
Test: inhibition of BHK-21 cell proliferation (CCK-8, optical density at 450 nm)
Type: cell-based
Conditions: for IC50: Mesocricetus auratus, inhibition ratio of cell proliferation, 48 hours after dosing, CCK-8; for The ratio with PFD (multiple): ratio of Pirfenidone IC50 from the compound IC50, the bigger the multiple, the better the vitro inhibitory activity, 48 hours
Experimental: Taking BHK-21 cells which in exponential growth phase, collecting and counting the cells which had digestive transfer culture after fusion growth 85-95%, adjusting the cell density to 2×10^4 cells per milliliter, seeding the cells into 96-well plates, 100 μl/well, the cells were incubated in a 5% CO2 incubator at 37° C.
The upper clear liquid of the 96-well plates was removed after the cells adhering to the wall 24 hours. The above compounds were confected into solutions of different concentration and the solutions were added to the wells, 100 μl/well. Each concentration solution in 3 replicates, the cells were subcultured 48 hours after dosing.
3. Testing the Optical Density
10 μl of CCK-8 solution was added to each well 48 hours after dosing, and incubated for 2 hours. The optical density (A) of each well was determined by a microplate reader at 450 nm wavelength. Calculating the inhibition ratio of cell proliferation of each compound is based on A and the inhibition ratio of cell proliferation (inhibition ratio, IR)=(1−value of experimental group (Ai)/value of control group (Ao))×100% and the IC50 of each compound at 48 hours was calculated by data processing software.

Structure (SMILES) | IC50 [mM] | The ratio with PFD (multiple)
Cc1ccc(=O)n(-c2ccc(CN3CCOCC3)c(F)c2)c1 [Example 1, 1-(3-fluoro-4-(morpholinomethyl)phenyl)-5-methylpyridin-2(1H)-one] | 0.4 | 16.6
Cc1cc(=O)n(-c2ccc(N3CCOCC3)c(F)c2)c(C)n1 [Example 7, 3-(3-fluoro-4-morpholinophenyl)-2,6-dimethylpyrimidin-4(3H)-one] | 0.74 | 1.35
CCN(CC)c1ccc(-n2c(C)nc(C)cc2=O)cc1F [Example 8, 3-(4-(diethylamino)-3-fluorophenyl)-2,6-dimethylpyrimidin-4(3H)-one] | 1.66 | 2.31
Cc1cc(=O)n(-c2ccc(N3CCS(=O)(=O)CC3)c(F)c2)c(C)n1 [Example 10, 3-(4-(1,1-dioxidothiomorpholino)-3-fluorophenyl)-2,6-dimethylpyrimidin-4(3H)-one] | 5.55 | 0.72
Cc1cc(=O)n(-c2ccc(N3CCCCC3)c(F)c2)c(C)n1 [Example 11, 3-(3-fluoro-4-(piperidin-1-yl)phenyl)-2,6-dimethylpyrimidin-4(3H)-one] | 1.32 | 2.91
Cc1cc(=O)n(-c2ccc(N3CCN(C)CC3)c(F)c2)c(C)n1 [Example 12, 3-(3-fluoro-4-(4-methylpiperazin-1-yl)phenyl)-2,6-dimethylpyrimidin-4(3H)-one] | 1.4 | 2.74
Cc1cc(=O)n(-c2cc(F)c3c(c2)OCC2CCCN32)c(C)n1 (stereo not drawn) [Example 13, 3-(9-fluoro-2,3,3a,4-tetrahydro-1H-benzo[b]pyrrolo[1,2-d][1,4]oxazin-7-yl)-2,6-dimethylpyrimidin-4(3H)-one] | 1.98 | 2.01
Cc1cc(=O)n(-c2cnc(-c3ccc(N4CCOCC4)cc3)s2)c(C)n1 [Example 15, 2,6-dimethyl-3-(2-(4-morpholinophenyl)thiazol-5-yl)pyrimidin-4(3H)-one] | 0.97 | 3.97
Cc1cc(=O)n(-c2ccc(-n3cccc3)c(F)c2)c(C)n1 [Example 18, 3-(3-fluoro-4-(1H-pyrrol-1-yl)phenyl)-2,6-dimethylpyrimidin-4(3H)-one] | 0.56 | 8.10
Cc1cc(=O)n(-c2ccc(-n3cccn3)c(F)c2)c(C)n1 [Example 19, 3-(3-fluoro-4-(1H-pyrazol-1-yl)phenyl)-2,6-dimethylpyrimidin-4(3H)-one] | 1.19 | 3.21
Cc1cc(=O)n(-c2ccc(N3CCOCC3)c(F)c2)c(COc2cccc(F)c2)n1 [Example 20, 3-(3-fluoro-4-morpholinophenyl)-2-((3-fluorophenoxy)methyl)-6-methylpyrimidin-4(3H)-one] | 0.04 | 95.70
Cc1cc(=O)n(-c2ccc(N3CCCC3)c(F)c2)c(C)n1 [Example 21, 3-(3-fluoro-4-(pyrrolidin-1-yl)phenyl)-2,6-dimethylpyrimidin-4(3H)-one] | 1.3 | 5.57
CCCCN(CCCC)c1ccc(-n2c(C)nc(C)cc2=O)cc1F [Example 22, 3-(4-(di-n-butylamino)-3-fluorophenyl)-2,6-dimethylpyrimidin-4(3H)-one] | 0.19 | 39.47
Cc1cc(=O)n(-c2ccc(N(CC(C)C)CC(C)C)c(F)c2)c(C)n1 [Example 23, 3-(4-(diisobutylamino)-3-fluorophenyl)-2,6-dimethylpyrimidin-4(3H)-one] | 0.11 | 30.31
CCCCCCN(CCCCCC)c1ccc(-n2c(C)nc(C)cc2=O)cc1F [Example 24, 3-(4-(di-n-hexylamino)-3-fluorophenyl)-2,6-dimethylpyrimidin-4(3H)-one] | 0.04 | 60.63
Cc1cc(=O)n(-c2ccc(N(C)CCN3CCOCC3)c(F)c2)c(C)n1 [Example 28, 3-(3-fluoro-4-(methyl(2-morpholinoethyl)amino)phenyl)-2,6-dimethylpyrimidin-4(3H)-one] | 4.99 | 1.60
Cc1cc(=O)n(-c2ccc(NCCN3CCOCC3)cc2Cl)c(C)n1 [Example 29, 3-(2-chloro-4-((2-morpholinoethyl)amino)phenyl)-2,6-dimethylpyrimidin-4(3H)-one] | 1.05 | 6.82
Cc1cc(=O)n(-c2ccc(NCCCN3CCOCC3)c(F)c2)c(C)n1 [Example 30, 3-(3-fluoro-4-((3-morpholinopropyl)amino)phenyl)-2,6-dimethylpyrimidin-4(3H)-one] | 0.54 | 13.18
Cc1cc(=O)n(-c2ccc(NCCCCN3CCOCC3)c(F)c2)c(C)n1 [Example 31, 3-(3-fluoro-4-((4-morpholinobutyl)amino)phenyl)-2,6-dimethylpyrimidin-4(3H)-one] | 2.22 | 3.50
CCCOCCN(CCOCCC)c1ccc(-n2c(C)nc(C)cc2=O)cc1F [Example 32, 3-(4-(bis(2-propoxyethyl)amino)-3-fluorophenyl)-2,6-dimethylpyrimidin-4(3H)-one] | 0.81 | 9.60
CCCCCCNc1ccc(-n2c(C)nc(C)cc2=O)cc1F [Example 33, 3-(3-fluoro-4-(hexylamino)phenyl)-2,6-dimethylpyrimidin-4(3H)-one] | 0.3 | 25.70
CCOCCCNc1ccc(-n2c(C)nc(C)cc2=O)cc1F [Example 34, 3-(4-((3-ethoxypropyl)amino)-3-fluorophenyl)-2,6-dimethylpyrimidin-4(3H)-one] | 2.49 | 3.10
Cc1cc(=O)n(-c2ccc(NCCCn3ccnc3)c(F)c2)c(C)n1 [Example 35, 3-(4-((3-(1H-imidazol-1-yl)propyl)amino)-3-fluorophenyl)-2,6-dimethylpyrimidin-4(3H)-one] | 3.01 | 2.60
Cc1cc(=O)n(-c2ccc(NCCN3CCCCC3)c(F)c2)c(C)n1 [Example 36, 3-(3-fluoro-4-((2-(piperidin-1-yl)ethyl)amino)phenyl)-2,6-dimethylpyrimidin-4(3H)-one] | 2.7 | 2.90
Cc1cc(=O)n(-c2ccc(NCCCn3cnnn3)c(F)c2)c(C)n1 [Example 37, 3-(4-((3-(1H-tetrazol-1-yl)propyl)amino)-3-fluorophenyl)-2,6-dimethylpyrimidin-4(3H)-one] | 4.31 | 1.80
Cc1cc(=O)n(-c2ccc(NCCc3cc4ccccc4[nH]3)c(F)c2)c(C)n1 [Example 38, 3-(4-((2-(1H-indol-2-yl)ethyl)amino)-3-fluorophenyl)-2,6-dimethylpyrimidin-4(3H)-one] | 0.49 | 15.80
CCCCCCN(CCCCCC)c1ccc(-n2c(C)nc(C)cc2=O)cc1Cl [Example 40, 3-(3-chloro-4-(dihexylamino)phenyl)-2,6-dimethylpyrimidin-4(3H)-one] | 0.06 | 127.50
